Reference: patent publication US20120020915A1, “Compounds and Methods for Treating Cancer and Diseases of the Central Nervous System” (QUEENS UNIVERSITY AT KINGSTON, priority 2007, published 2012)
Counter-ions that a name gives are not always drawn. Like-named read-outs stand apart in the source and are kept apart here.

Key:
[1] = target: T1, HO-2 (rat brain) (Rattus norvegicus, UniProt P23711); experiment: HO enzymatic activity, rat brain microsomal fraction (CO formation from methemalbumin); type: biochemical
T1 construct: brain microsomes were used as a source of HO-2; from tissue; host or cells: brain microsomal fraction of adult male Sprague-Dawley rats
T1 sequence (P23711 1-315): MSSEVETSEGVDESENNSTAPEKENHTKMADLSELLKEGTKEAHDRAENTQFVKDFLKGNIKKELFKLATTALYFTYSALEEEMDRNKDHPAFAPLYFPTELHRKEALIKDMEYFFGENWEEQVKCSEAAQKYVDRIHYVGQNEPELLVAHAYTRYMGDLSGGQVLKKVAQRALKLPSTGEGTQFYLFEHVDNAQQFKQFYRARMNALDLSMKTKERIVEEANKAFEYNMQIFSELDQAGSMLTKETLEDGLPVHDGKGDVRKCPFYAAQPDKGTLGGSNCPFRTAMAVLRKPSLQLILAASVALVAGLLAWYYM
Procedure: (§1) Incubations for HO activity analysis were done under conditions for which the rate of CO formation (pmol CO×min^−1×mg protein^−1) was linear with respect to time and microsomal protein concentration. Briefly, reaction mixtures (150 μL) consisting of 100 mM phosphate buffer (pH 7.4), 50 μM methemalbumin, and 1 mg/mL protein were pre-incubated with the inhibitors at final concentrations ranging from 0.1-100 μM for 10 minutes at 37° C. Reactions were initiated by adding NADPH at a final concentration of 1 mM and incubations were performed for an additional 15 minutes at 37° C.
(§2) Incubations for HO activity analysis were done under conditions for which the rate of CO formation (pmol CO/mg protein/minute) was linear with respect to time and microsomal protein concentration. Briefly, reaction mixtures (150 μL) consisting of 100 mM phosphate buffer (pH 7.4), 50 μM methemalbumin and 1 mg/mL protein were pre-incubated with the vehicle (ethanol or water in which the inhibitors were dissolved), or inhibitors at final concentrations ranging from 0.1-1000 μM for 10 minutes at 37° C. Reactions were initiated by adding β-NADPH at a final concentration of 1 mM and incubations were carried out for an additional 15 minutes at 37° C. Reactions were stopped by instantly freezing the reaction mixture on pulverized dry ice and CO formation was measured by gas chromatography using a TA 3000R Process Gas Analyzer (Trace Analytical/Ametek, Newark, Del., USA).
(§3) The values on the abscissa represent the decimal logarithm of the inhibitor's concentration (in μM), whereas the values of the activity on the ordinate are expressed as a percentage of the control experiments without inhibitor.
(§4) The IC50 values for the replicate experiments were employed to generate the reported standard deviation value.

[2] = target: T2, HO-1 (rat spleen) (Rattus norvegicus, UniProt P06762); experiment: HO enzymatic activity, rat spleen microsomal fraction (CO formation from methemalbumin); type: biochemical
T2 construct: Spleen microsomes were used as a source of HO-1; from tissue; host or cells: spleen microsomal fraction of adult male Sprague-Dawley rats
T2 sequence (P06762 1-289): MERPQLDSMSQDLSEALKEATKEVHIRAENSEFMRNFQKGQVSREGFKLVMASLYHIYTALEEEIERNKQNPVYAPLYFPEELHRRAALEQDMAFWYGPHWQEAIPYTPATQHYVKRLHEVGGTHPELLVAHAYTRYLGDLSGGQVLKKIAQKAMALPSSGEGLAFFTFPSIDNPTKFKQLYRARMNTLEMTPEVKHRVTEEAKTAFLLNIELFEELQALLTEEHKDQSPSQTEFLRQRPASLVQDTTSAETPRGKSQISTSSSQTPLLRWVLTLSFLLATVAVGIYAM
Procedure: as §1, §2, §3, §4

[3] = IC50 HO-2 (rat brain)/μM), CO formation from methemalbumin, mean ± SD of replicate experiments
[4] = CO formation from methemalbumin, mean ± SD of replicate experiments, read-out: IC50 HO-1 (rat spleen/μM)
[5] = CO formation from methemalbumin, mean ± SD of replicate experiments, read-out: IC50 HO-2 (rat brain)/μM)
[6] = IC50 HO-1 (rat spleen/μM), CO formation from methemalbumin, mean ± SD of replicate experiments
[7] = IC50 HO-2 (rat brain)/μM), average ± SD of replicate experiments
[8] = IC50 HO-1 (rat spleen/μM), average ± SD of replicate experiments
[9] = average ± SD of replicate experiments, read-out: IC50 HO-2 (rat brain)/μM)
[10] = average ± SD of replicate experiments, read-out: IC50 HO-1 (rat spleen/μM)

Structure (SMILES) | IC50 [2, 4] [µM] | IC50 [1, 5] [µM] | further results
O=C(Cn1ccnc1)NCc1ccccc1 [QC-63, N-benzyl-2-(1H-imidazol-1-yl)-acetamide hydrochloride] | 12 ± 5 | – | IC50 [1, 3]: > 100 µM
O=C(O)Cn1ccnc1 [QC-66, Imidazol-1-yl-acetic acid] | > 100 | > 100 | –
NCCc1c[nH]cn1 [QC-67, Histamine dihydrochloride, reference compound] | > 100 | > 100 | –
N[C@@H](Cc1c[nH]cn1)C(=O)O [QC-68, L-histidine hydrochloride monohydrate, reference compound] | > 100 | > 100 | –
CSCC[C@@H](N)C(=O)O [QC-69, D-methionine, reference compound] | > 100 | > 100 | –
Clc1ccc(CCC2(Cn3ccnc3)OCCCO2)cc1 [QC-70, 2-[2-(4-chlorophenyl)ethyl]-2-[(1H-imidazol-1-yl)methyl]-1,3-dioxane hydrochloride] | – | – | IC50 [1, 3]: > 100 µM; IC50 [2, 6]: 20 ± 4 µM
Clc1ccc(CCC2(Cn3ccnc3)O[C@H]3CCCC[C@H]3O2)cc1 (some centres unmarked) [QC-71, 1-{2-[2-(4-Chlorophenyl)-ethyl]-hexahydrobenzo[1,3]dioxol-2-ylmethyl}-1H-imidazole] | – | – | IC50 [1, 3]: > 100 µM; IC50 [2, 6]: 69 ± 7 µM
COc1ccc(CCC(=O)Cn2ccnc2)cc1 [QC-72, 1-(1H-imidazol-1-yl)-4-(4-methoxyphenyl)-2-butanone hydrochloride] | – | – | IC50 [1, 3]: 29 ± 19 µM; IC50 [2, 6]: 2.2 ± 0.9 µM
O=C(CCn1ccnc1)c1ccccc1O [QC-75, 1-(2-hydroxyphenyl)-3-imidazol-1-yl-propan-1-one] | – | – | IC50 [1, 3]: > 100 µM; IC50 [2, 6]: 25 ± 12 µM
O=C(n1ccnc1)C(F)(F)F [QC-77, N-trifluoroacetylimidazole] | > 100 | > 100 | –
CN(C)CCC(=O)c1ccc(Cl)cc1 [QC-84, 1-(4-chlorophenyl)-3-dimethylamino-propan-1-one] | – | – | IC50 [1, 3]: > 100 µM; IC50 [2, 6]: > 100 µM
O=C(CCn1ccnc1)c1ccc(Cl)cc1 [QC-85, 1-(4-chlorophenyl)-3-imidazol-1-yl-propan-1-one hydrochloride] | – | – | IC50 [1, 3]: > 100 µM; IC50 [2, 6]: 32 ± 3 µM
c1cn(CCCCn2ccnc2)cn1 [QC-88, 1,4-bis-(1H-imidazol-1-yl)butane dihydrochloride] | > 100 | > 100 | –
c1cn(CCCCCCn2ccnc2)cn1 [QC-89, 1,6-bis-(1H-imidazol-1-yl)hexane dihydrochloride] | > 100 | > 100 | –
c1ccc(CCC2(Cn3cccn3)OCCO2)cc1 [QC-95, 2-phenylethyl-2-[(1H-pyrazole-1-yl)methyl]-1,3-dioxolane hydrochloride] | > 100 | > 100 | –
O=C(CCc1ccccc1)C[n+]1ccncc1 [QC-97, 1-(4-phenyl-2-oxo-butyl)-pyrazin-1-ium bromide] | 163 ± 10 | > 100 | –
O=C(c1ccc(-n2ccnc2)cc1)C1CC1 [QC-98, Cyclopropyl-(4-imidazol-1-yl-phenyl)methanone hydrochloride] | > 100 | > 100 | –
CCCC(=O)n1ccnc1 [QC-100, N-butyrylimidazole] | > 100 | > 100 | –
O=C(NCCCn1ccnc1)Nc1ccccc1 [QC-107, 1-(3-Imidazol-1-yl-propyl)-3-phenyl-urea] | > 100 | > 100 | –
O=C(NCCCn1ccnc1)c1ccccc1 [QC-109, N-(3-Imidazol-1-yl-propyl)-benzamide] | > 100 | > 100 | –

Structure (SMILES) | IC50 [2, 4] [µM] | IC50 [1, 5] [µM] | further results
CCOC(=O)c1nccn1CC(=O)CCc1ccccc1 [QC-110, 1-(2-Oxo-4-phenyl-butyl)-1H-imidazole-2-carboxylic acid ethyl ester hydrochloride] | – | – | IC50 [1, 3]: > 100 µM; IC50 [2, 6]: > 100 µM
CSc1nccn1CC(=O)CCc1ccccc1 [QC-113, 1-(2-Methylsulfanyl-imidazol-1-yl)-4-phenyl-butan-2-one] | > 100 | > 100 | –
O=C(CCc1ccccc1)Cn1ncnn1 [QC-117, 4-Phenyl-1-tetrazol-2-yl-butan-2-one hydrochloride] | – | 37 ± 25 | IC50 [2, 6]: 9.6 ± 0.2 µM
O=C(CCc1ccccc1)Cn1cnnn1 [QC-118, 4-Phenyl-1-tetrazol-1-yl-butan-2-one hydrochloride] | – | 20 ± 10 | IC50 [2, 6]: 2.6 ± 0.9 µM
CCCCn1ccnc1 [QC-122, 1-Butyl-1H-imidazole] | > 100 | > 100 | –
COC(=O)c1ncn(CC(=O)CCc2ccccc2)c1C(=O)OC [QC-123, 1-(2-Oxo-4-phenyl-butyl)-1H-imidazole-4,5-dicarboxylic acid dimethyl ester hydrochloride] | – | – | IC50 [1, 3]: > 100 µM; IC50 [2, 6]: > 100 µM
O=C(CCc1ccccc1)Cn1cnc(-c2ccccc2)c1 [QC-124, 4-Phenyl-1-(4-phenyl-imidazol-1-yl)-butan-2-one hydrochloride] | 9 ± 2 | 145 ± 54 | –
CS(=O)(=O)c1nccn1CC(=O)CCc1ccccc1 [QC-125, 1-(2-Methanesulfonyl-imidazol-1-yl)-4-phenyl-butan-2-one] | > 100 | > 100 | –
O=C(CCc1ccccc1)Cn1cnc([N+](=O)[O-])c1 [QC-127, 1-(4-Nitro-imidazol-1-yl)-4-phenyl-butan-2-one] | > 100 | > 100 | –
O=C(CCc1ccccc1)Cn1cnc2ccccc21 [QC-128, 1-Benzoimidazol-1-yl-4-phenyl-butan-2-one] | > 100 | > 100 | –
O=C(CCc1ccccc1)Cn1nnc2ccccc21 [QC-131, 1-Benzotriazol-1-yl-4-phenyl-butan-2-one] | > 100 | > 100 | –
COC(=O)c1cn(CC(=O)CCc2ccccc2)cn1 [QC-133, 1-(2-Oxo-4-phenyl-butyl)-1H-imidazole-4-carboxylic acid methyl ester] | > 100 | > 100 | –
COC(=O)c1cncn1CC(=O)CCc1ccccc1 [QC-134, 3-(2-Oxo-4-phenyl-butyl)-3H-imidazole-4-carboxylic acid methyl ester] | 55 ± 2 | > 100 | –
COC(=O)c1ncn(CC(=O)CCc2ccccc2)n1 [QC-135, 1-(2-Oxo-4-phenyl-butyl)-1H-[1,2,4]triazole-3-carboxylic acid methyl ester] | > 100 | > 100 | –
COC(=O)c1ncnn1CC(=O)CCc1ccccc1 [QC-136, 2-(2-Oxo-4-phenyl-butyl)-2H-[1,2,4]triazole-3-carboxylic acid methyl ester] | > 100 | > 100 | –
CC(=O)NCCc1c[nH]cn1 [QC-138, N-[2-(1H-Imidazol-4-yl)-ethyl]-acetamide] | > 100 | > 100 | –
O=C(Cn1ccnc1)c1ccccc1 [QC-141, 2-Imidazol-1-yl-1-phenyl-ethanone hydrochloride] | – | – | IC50 [1, 7]: > 100 µM; IC50 [2, 8]: 28 ± 4 µM
O=C(Cn1ccnc1)c1ccc(Cl)cc1 [QC-142, 1-(4-Chlorophenyl)-2-imidazol-1-yl-ethanone hydrochloride] | – | – | IC50 [1, 7]: 20 ± 8 µM; IC50 [2, 8]: 4 ± 2 µM
c1ccc2[nH]c(NCCCCCN3CCCCC3)nc2c1 [QC-144, (1H-Benzoimidazol-2-yl)-(5-piperidin-1-yl-pentyl)-amine] | – | – | IC50 [1, 9]: > 100 µM; IC50 [2, 10]: > 100 µM
Nc1nc2cc(OCCCCN3CCCCC3)ccc2[nH]1 [QC-146, 5-(4-Piperidin-1-yl-butoxy)-1H-benzoimidazol-2-ylamine dihydrochloride 3/2 hydrate] | – | – | IC50 [1, 9]: > 100 µM; IC50 [2, 10]: > 100 µM
